This note sets out measurements from patent US9796733B2, “Imidazo-pyrazine derivatives useful as soluble guanylate cyclase activators” (Merck Sharp & Dohme Corp., priority 2014, dated 2017).

This assay deals with T1, sGC α1/β1 heterodimer (Homo sapiens, UniProt Q02108+Q02153).
T1 construct: expressed in transfected cells; host or cells: CHO-K1 (clone #7, CHO-K1/sGC)
T1 sequence (Q02108 1-690): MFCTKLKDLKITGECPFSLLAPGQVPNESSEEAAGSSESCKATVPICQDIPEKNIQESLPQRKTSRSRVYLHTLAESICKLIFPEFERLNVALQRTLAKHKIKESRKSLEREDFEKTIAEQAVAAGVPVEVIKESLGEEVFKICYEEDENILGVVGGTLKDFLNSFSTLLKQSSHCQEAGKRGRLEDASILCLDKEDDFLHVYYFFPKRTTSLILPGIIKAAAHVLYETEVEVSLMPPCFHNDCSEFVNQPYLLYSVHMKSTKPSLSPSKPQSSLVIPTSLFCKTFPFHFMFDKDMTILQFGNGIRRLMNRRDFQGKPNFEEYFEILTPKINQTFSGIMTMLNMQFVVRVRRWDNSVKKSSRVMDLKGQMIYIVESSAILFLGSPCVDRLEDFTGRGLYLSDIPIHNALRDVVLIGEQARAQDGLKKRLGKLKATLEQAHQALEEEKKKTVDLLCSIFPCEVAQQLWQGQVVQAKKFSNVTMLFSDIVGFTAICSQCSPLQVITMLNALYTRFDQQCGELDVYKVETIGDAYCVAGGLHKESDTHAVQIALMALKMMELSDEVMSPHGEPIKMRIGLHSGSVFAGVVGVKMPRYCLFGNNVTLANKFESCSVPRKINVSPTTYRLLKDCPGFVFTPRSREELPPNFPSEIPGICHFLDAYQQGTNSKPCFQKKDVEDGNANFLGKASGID
T1 sequence (Q02153 1-619): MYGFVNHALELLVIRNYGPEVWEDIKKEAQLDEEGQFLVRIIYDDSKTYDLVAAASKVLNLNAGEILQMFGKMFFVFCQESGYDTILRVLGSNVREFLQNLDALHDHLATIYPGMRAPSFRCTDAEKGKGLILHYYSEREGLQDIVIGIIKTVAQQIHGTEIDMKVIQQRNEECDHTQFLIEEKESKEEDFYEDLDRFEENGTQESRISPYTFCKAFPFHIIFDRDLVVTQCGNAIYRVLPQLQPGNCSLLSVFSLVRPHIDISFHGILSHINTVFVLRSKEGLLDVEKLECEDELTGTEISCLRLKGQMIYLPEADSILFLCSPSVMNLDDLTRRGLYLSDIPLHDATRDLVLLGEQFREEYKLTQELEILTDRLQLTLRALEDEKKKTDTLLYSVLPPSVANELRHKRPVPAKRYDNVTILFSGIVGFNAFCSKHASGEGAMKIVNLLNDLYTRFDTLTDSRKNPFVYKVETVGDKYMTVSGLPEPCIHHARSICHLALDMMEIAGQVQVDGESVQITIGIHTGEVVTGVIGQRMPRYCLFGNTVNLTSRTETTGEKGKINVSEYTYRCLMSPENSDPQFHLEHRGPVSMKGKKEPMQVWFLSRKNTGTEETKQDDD
The assay can be described thus: Cell-based sGC functional assay (CASA assay): cGMP generation in CHO-K1/sGC cells, HTRF detection. To be noted: for Emax: CHO-K1, percent activation relative to standard Compound A in CHO-K1/sGC cells, read-out: % Act.; for EC50: inflection point (IP) of cGMP generation in CHO-K1/sGC cells, 4P fit, activity expressed as percentage of Compound A. The method, boiled down: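 cGMP was quantified by HTRF after 1 hr, 37° C exposure of thawed CHO-K1 cells expressing sGC α1/β1 to compound, with or without 1 μM DETA-NO. IBMX (0.5 mM) blocked cGMP breakdown, and DMSO was 2.5% final. Percent of standard Compound A's maximal cGMP was fitted (4P) for inflection point.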

Each structure is given as a SMILES string.

In general, EC50 refers to the concentration that produces a half-maximal response. Regarding `CC1(c2ccc(Cl)cn2)C(=O)Nc2nc(-c3cn4ccnc4c(Cc4ccc(F)cc4)n3)nc(N)c21` (stereo not drawn) [Example 107A, 4-amino-5-(5-chloropyridin-2-yl)-2-(8-(4-fluorobenzyl)imidazo[1,2-a]pyrazin-6-yl)-5-methyl-5H-pyrrolo[2,3-d]pyrimidin-6(7H)-one], the Emax is 171% and it took 86 nM to reach a half-maximal effect (EC50).
Turning to `CC1(c2ccc(Cl)cc2)C(=O)Nc2nc(-c3cn4ccnc4cn3)nc(N3CC(F)(C4CC4)C3)c21` (stereo not drawn) [Example 281A, 5-(4-chlorophenyl)-4-(3-cyclopropyl-3-fluoroazetidin-1-yl)-2-(imidazo[1,2-a]pyrazin-6-yl)-5-methyl-5H-pyrrolo[2,3-d]pyrimidin-6(7H)-one], the Emax came out at 120% and the EC50 came out at 102 nM.
`CC1(c2cccc(F)c2)C(=O)Nc2nc(-c3cn4ccnc4c(CCC(F)(F)F)n3)nc(N)c21` (stereo not drawn) [Example 191A, 4-amino-5-(3-fluorophenyl)-5-methyl-2-(8-(3,3,3-trifluoropropyl)imidazo[1,2-a]pyrazin-6-yl)-5H-pyrrolo[2,3-d]pyrimidin-6(7H)-one]: the Emax came out at 90% and it took 130 nM to reach a half-maximal effect (EC50).
For `CC(C)c1nc(C2(C)C(=O)Nc3nc(-c4cn5ccnc5c(CCC(F)(F)C(F)(F)F)n4)nc(N)c32)no1` (single isomer, unassigned) [Example 321B, 4-amino-5-(5-isopropyl-1,2,4-oxadiazol-3-yl)-5-methyl-2-(8-(3,3,4,4,4-pentafluorobutyl)imidazo[1,2-a]pyrazin-6-yl)-5H-pyrrolo[2,3-d]pyrimidin-6(7H)-one], in that order: 126% and 237 nM.
`CC1(c2ccc(F)cc2)C(=O)Nc2nc(-c3cn4c(Cc5ccccc5)cnc4c(CCC(F)(F)C(F)(F)F)n3)nc(N)c21` (stereo not drawn) [Example 260A, 4-Amino-2-(3-benzyl-8-(3,3,4,4,4-pentafluorobutyl)imidazo[1,2-a]pyrazin-6-yl)-5-(4-fluorophenyl)-5-methyl-5H-pyrrolo[2,3-d]pyrimidin-6(7H)-one]: the Emax was determined as 90% and a half-maximal response (EC50) required 504 nM.
For `CC1(c2ccc(Cl)cc2)C(=O)Nc2nc(-c3cn4ccnc4c(Cc4ccc(F)c(F)c4)n3)nc(N)c21` (stereo not drawn) [Example 97A, 4-amino-5-(4-chlorophenyl)-2-(8-(3,4-difluorobenzyl)imidazo[1,2-a]pyrazin-6-yl)-5-methyl-5H-pyrrolo[2,3-d]pyrimidin-6(7H)-one], the Emax is 145% and the EC50 came out at 5 nM.
Consider `CC1(c2ccc(F)cc2)C(=O)Nc2nc(-c3cn4ccnc4c(CCC(F)(F)C(F)(F)F)n3)nc(N3CCN(S(C)(=O)=O)CC3)c21` (stereo not drawn) [Example 299A, 5-(4-fluorophenyl)-5-methyl-4-(4-(methylsulfonyl)piperazin-1-yl)-2-(8-(3,3,4,4,4-pentafluorobutyl)imidazo[1,2-a]pyrazin-6-yl)-5H-pyrrolo[2,3-d]pyrimidin-6(7H)-one], for which the Emax came out at 114% and the EC50 came out at 624 nM.
`Nc1nc(-c2cn3ccnc3c(Cc3ccc(F)cc3)n2)nc2c1C(c1ccc(Cl)cn1)(C1CC1)C(=O)N2` (single isomer, unassigned) [Example 108A, 4-amino-5-(5-chloropyridin-2-yl)-5-cyclopropyl-2-(8-(4-fluorobenzyl)imidazo[1,2-a]pyrazin-6-yl)-5H-pyrrolo[2,3-d]pyrimidin-6(7H)-one]: the EC50 amounted to 12 nM. Further, for the setting “percent activation relative to standard Compound A in CHO-K1/sGC cells”, the “% Act.” value worked out at 121%.
Consider `Nc1nc(-c2cn3cc(C(F)(F)F)nc3c(Cc3ccc(F)cc3)n2)nc2c1C(C(=O)NC1CC1)(C1CC1)C(=O)N2` (stereo not drawn) [Example 50B, 4-amino-N,5-dicyclopropyl-2-(8-(4-fluorobenzyl)-2-(trifluoromethyl)imidazo[1,2-a]pyrazin-6-yl)-6-oxo-6,7-dihydro-5H-pyrrolo[2,3-d]pyrimidine-5-carboxamide], for which the Emax amounted to 86% and the EC50 came out at 829 nM.
On to `CC1(C)C(=O)Nc2nc(-c3cn4c(Br)cnc4c(CCC(F)(F)C(F)(F)F)n3)nc(N)c21` [Example 263, 4-amino-2-(3-bromo-8-(3,3,4,4,4-pentafluorobutyl)imidazo[1,2-a]pyrazin-6-yl)-5,5-dimethyl-5H-pyrrolo[2,3-d]pyrimidin-6(7H)-one], for which the Emax stood at 20% and the midpoint of the response, the EC50, lay at 314 nM.
For the compound `Cc1ncc(C2(C3CC3)C(=O)Nc3nc(-c4cn5ccnc5c(CCC(F)(F)C(F)(F)F)n4)nc(N)c32)cn1` (single isomer, unassigned) [Example 348B, 4-amino-5-cyclopropyl-5-(2-methylpyrimidin-5-yl)-2-(8-(3,3,4,4,4-pentafluorobutyl)imidazo[1,2-a]pyrazin-6-yl)-5H-pyrrolo[2,3-d]pyrimidin-6(7H)-one], the Emax was 175% and the EC50 is 1550 nM.
`CC(C)Oc1ccc(C2(C)C(=O)Nc3nc(-c4cn5ccnc5c(CCC(F)(F)C(F)(F)F)n4)nc(N)c32)cn1` (stereo not drawn) [Example 241B, 4-amino-5-(6-isopropoxypyridin-3-yl)-5-methyl-2-(8-(3,3,4,4,4-pentafluorobutyl)imidazo [1,2-a]pyrazin-6-yl)-5H-pyrrolo[2,3-d]pyrimidin-6(7H)-one]: the Emax is 99% and the EC50 stood at 58 nM.
As to `CC1(c2ccccc2)C(=O)Nc2nc(-c3cn4c(Cl)cnc4c(CCC(F)(F)F)n3)nc(N)c21` (stereo not drawn) [Example 259B, 4-amino-2-(3-chloro-8-(3,3,3-trifluoropropyl)imidazo[1,2-a]pyrazin-6-yl)-5-methyl-5-phenyl-5H-pyrrolo[2,3-d]pyrimidin-6(7H)-one], the Emax amounted to 99% and the EC50 is 112 nM.
`CC1(C(=O)NC2CC2)C(=O)Nc2nc(-c3cn4cc(C(F)(F)F)nc4c(Cc4ccccc4F)n3)nc(N)c21` (stereo not drawn) [Example 47B, 4-amino-N-cyclopropyl-2-(8-(2-fluorobenzyl)-2-(trifluoromethyl)imidazo[1,2-a]pyrazin-6-yl)-5-methyl-6-oxo-6,7-dihydro-5H-pyrrolo[2,3-d]pyrimidine-5-carboxamide]: the Emax stood at 118% and the EC50 stood at 735 nM.
For `CC1(C)C(=O)Nc2nc(-c3cn4ccnc4c(Cc4ccc(F)c(F)c4)n3)nc(N)c21` [Example 73, 4-amino-2-(8-(3,4-difluorobenzyl)imidazo[1,2-a]pyrazin-6-yl)-5,5-dimethyl-5H-pyrrolo[2,3-d]pyrimidin-6(7H)-one], in that order: 111% and 44 nM.
On to `Nc1nc(-c2cn3ccnc3c(CCC(F)(F)C(F)(F)F)n2)nc2c1C(c1ccc(Cl)cc1)(C1CCC1)C(=O)N2` (single isomer, unassigned) [Example 350B, 4-amino-5-(4-chlorophenyl)-5-cyclobutyl-2-(8-(3,3,4,4,4-pentafluorobutyl)imidazo[1,2-a]pyrazin-6-yl)-5H-pyrrolo[2,3-d]pyrimidin-6(7H)-one], for which the Emax was found to be 239% and the EC50 is 105 nM.
For `CC1(c2ccc(F)cc2)C(=O)Nc2nc(-c3cn4ccnc4c(Cc4ccccc4)n3)nc(N)c21` (stereo not drawn) [Example 93A, 4-amino-2-(8-benzylimidazo[1,2-a]pyrazin-6-yl)-5-(4-fluorophenyl)-5-methyl-5H-pyrrolo[2,3-d]pyrimidin-6(7H)-one], in that order: 109% and 12 nM.
`COc1ccc(C2(C)C(=O)Nc3nc(-c4cn5ccnc5c(CCCC(F)(F)F)n4)nc(N)c32)nc1` (stereo not drawn) [Example 212B, 4-amino-5-(5-methoxypyridin-2-yl)-5-methyl-2-(8-(4,4,4-trifluorobutyl)imidazo[1,2-a]pyrazin-6-yl)-5H-pyrrolo[2,3-d]pyrimidin-6(7H)-one]: the Emax was found to be 83% and it took 87 nM to reach a half-maximal effect (EC50).
